Measured values: patent US20080161395A1, “Derivatives of Aminobutanoic Acid Inhibiting Cpt” (SIGMA-TAU INDUSTRIE FARMACEUTICHE RIUNITE S.P.A., priority 2005, published 2008)

Experiments:
CPT1 liver = target: T1, CPT1 liver (Rattus norvegicus, UniProt P32198); assay: Inhibition of CPT in fresh rat liver mitochondrial preparations; type: biochemical, Fischer rats; settings: rat liver mitochondria, 50 μM [14C]palmitoyl-CoA, 10 mM L-carnitine, 37° C., 1 minute
T1 construct: fresh mitochondrial preparations obtained from the liver or heart of Fischer rats; from tissue; host or cells: liver mitochondria of Fischer rats
T1 sequence (P32198 1-773): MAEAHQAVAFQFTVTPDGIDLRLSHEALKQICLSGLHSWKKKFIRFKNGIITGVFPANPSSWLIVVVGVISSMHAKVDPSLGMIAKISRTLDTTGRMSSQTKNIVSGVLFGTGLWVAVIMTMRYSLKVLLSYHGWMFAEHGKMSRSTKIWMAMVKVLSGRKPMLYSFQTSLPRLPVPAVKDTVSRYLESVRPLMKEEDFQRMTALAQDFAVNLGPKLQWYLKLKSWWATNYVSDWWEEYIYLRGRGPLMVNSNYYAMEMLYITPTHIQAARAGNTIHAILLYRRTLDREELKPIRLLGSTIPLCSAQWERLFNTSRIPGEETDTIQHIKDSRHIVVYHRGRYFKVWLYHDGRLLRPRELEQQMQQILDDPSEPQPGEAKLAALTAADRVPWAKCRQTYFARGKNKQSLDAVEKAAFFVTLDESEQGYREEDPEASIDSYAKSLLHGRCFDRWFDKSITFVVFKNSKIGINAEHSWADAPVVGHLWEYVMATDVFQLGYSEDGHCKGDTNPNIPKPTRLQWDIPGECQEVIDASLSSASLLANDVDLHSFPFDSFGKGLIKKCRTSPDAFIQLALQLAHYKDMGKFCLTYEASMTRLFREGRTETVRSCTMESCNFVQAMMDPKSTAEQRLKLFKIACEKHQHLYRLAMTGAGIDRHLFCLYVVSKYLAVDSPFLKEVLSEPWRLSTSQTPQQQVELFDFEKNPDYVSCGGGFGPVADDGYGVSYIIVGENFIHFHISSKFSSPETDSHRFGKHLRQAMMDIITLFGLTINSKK
Description: 100 μl of a mitochondrial suspension, containing 50 μM of [^14C] palmitoyl-CoA (spec.act. 10000 dpm/mole) and 10 mM of L-carnitine, are incubated at 37° C. in the presence of stepped concentrations (0-3 mM) of product under examination.
(§1) The IC50 is then determined.

CPT1 heart = target: T2, CPT1 heart (Rattus norvegicus, UniProt Q63704); assay: Inhibition of CPT in fresh rat heart mitochondrial preparations; type: biochemical, Fischer rats; settings: rat heart mitochondria, 50 μM [14C]palmitoyl-CoA, 10 mM L-carnitine, 37° C., 1 minute
T2 construct: fresh mitochondrial preparations obtained from the liver or heart of Fischer rats; from tissue; host or cells: heart mitochondria of Fischer rats
T2 sequence (Q63704 1-772): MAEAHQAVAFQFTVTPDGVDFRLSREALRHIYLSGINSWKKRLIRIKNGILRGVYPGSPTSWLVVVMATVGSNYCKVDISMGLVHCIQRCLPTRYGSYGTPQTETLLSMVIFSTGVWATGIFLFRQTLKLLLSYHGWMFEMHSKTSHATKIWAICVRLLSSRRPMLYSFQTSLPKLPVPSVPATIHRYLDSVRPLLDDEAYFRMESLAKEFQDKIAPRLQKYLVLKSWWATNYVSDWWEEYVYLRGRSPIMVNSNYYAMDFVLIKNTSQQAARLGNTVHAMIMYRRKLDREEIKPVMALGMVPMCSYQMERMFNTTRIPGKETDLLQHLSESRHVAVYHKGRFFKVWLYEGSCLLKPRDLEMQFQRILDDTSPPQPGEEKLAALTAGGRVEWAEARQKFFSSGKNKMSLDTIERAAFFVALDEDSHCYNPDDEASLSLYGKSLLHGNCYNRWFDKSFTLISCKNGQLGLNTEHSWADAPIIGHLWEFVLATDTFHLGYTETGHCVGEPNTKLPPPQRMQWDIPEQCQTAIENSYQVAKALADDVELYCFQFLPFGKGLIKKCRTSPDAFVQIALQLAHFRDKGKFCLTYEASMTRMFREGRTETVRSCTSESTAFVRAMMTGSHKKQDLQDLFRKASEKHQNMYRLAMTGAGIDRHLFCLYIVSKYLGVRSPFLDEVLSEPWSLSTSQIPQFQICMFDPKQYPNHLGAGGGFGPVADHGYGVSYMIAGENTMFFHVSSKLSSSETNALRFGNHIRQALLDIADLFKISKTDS
Description: The inhibition of CPT was evaluated on fresh mitochondrial preparations obtained from the liver or heart of Fischer rats, fed normally; the mitochondria taken from the liver or heart are suspended in a 75 mM sucrose buffer, EGTA 1 mM, pH 7.5. 100 μl of a mitochondrial suspension, containing 50 μM of [^14C] palmitoyl-CoA (spec.act. 10000 dpm/mole) and 10 mM of L-carnitine, are incubated at 37° C. in the presence of stepped concentrations (0-3 mM) of product under examination.
as §1

[1] = system: CPT-1 in the hypothalamus; settings: intracerebroventricular (icv) administration; Nature Medicine, 2003, 9(6), 756-761; cited from earlier work

Structure (SMILES)	IC50 (CPT1 liver) [µM]	IC50 (CPT1 heart) [µM]	food intake and gluconeogenesis [1]
CCCCCCCCCCCCCCNC(=O)N[C@H](CC(=O)[O-])C[N+](C)(C)C [ST1326, R-4-trimethyl ammonium-3-(tetradecylcarbamoyl)-aminobutyrate]	0.36	48.8	significantly and consistently reducing
CCCCCCCCCCCCCCNC(=O)N[C@H](CC(=O)O)CN(C)C [ST2837, (R)-4-(dimethylamino)-3-(tetradecylcarbamoyl)-amino-butyric Acid]	5.7	70	
